Assays:
[1] = molecular target: Lysine-specific histone demethylase 1A (Homo sapiens, UniProt O60341); experiment: Inhibition of human recombinant LSD1 using fluorogenic ADHP as substrate preincubated for 30 mins followed by substrate addition measured after 10 mins by fluorescence assay
[2] = test system: A549; experiment: Antiproliferative activity against human A549 cells overexpressing LSD1 assessed as reduction in cell viability measured after 72 hrs by MTT assay; details: A549, 72 h
[3] = test system: U-87 MG; experiment: Antiproliferative activity against human U87MG cells assessed as reduction in cell viability measured after 72 hrs by MTT assay
[4] = molecular target: T1, Amine oxidase [flavin-containing] A (Homo sapiens, UniProt P21397); experiment: Inhibition of human recombinant MAO-A expressed in baculovirus infected BTI cells using luciferin derived luminogenic substrate measured after 20 mins by luminescence assay
T1 sequence (P21397 whole entry): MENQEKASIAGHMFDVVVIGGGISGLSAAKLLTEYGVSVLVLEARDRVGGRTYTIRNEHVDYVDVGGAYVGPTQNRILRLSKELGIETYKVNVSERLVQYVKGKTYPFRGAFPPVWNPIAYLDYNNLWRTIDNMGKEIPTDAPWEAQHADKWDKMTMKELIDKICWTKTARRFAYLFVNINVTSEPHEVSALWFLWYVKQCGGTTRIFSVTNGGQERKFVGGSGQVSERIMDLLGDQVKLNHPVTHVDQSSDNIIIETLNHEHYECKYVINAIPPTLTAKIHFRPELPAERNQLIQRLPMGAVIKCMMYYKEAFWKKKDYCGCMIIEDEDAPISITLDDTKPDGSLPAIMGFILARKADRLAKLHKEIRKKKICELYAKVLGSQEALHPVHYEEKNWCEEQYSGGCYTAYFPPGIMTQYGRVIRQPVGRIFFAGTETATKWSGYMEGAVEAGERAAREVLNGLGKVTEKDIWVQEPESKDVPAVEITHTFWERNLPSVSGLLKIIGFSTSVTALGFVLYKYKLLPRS

[5] = molecular target: T2, Amine oxidase [flavin-containing] B (Homo sapiens, UniProt P27338); experiment: Inhibition of human recombinant MAO-B expressed in baculovirus infected BTI cells using luciferin derived luminogenic substrate measured after 20 mins by luminescence assay
T2 sequence (P27338 whole entry): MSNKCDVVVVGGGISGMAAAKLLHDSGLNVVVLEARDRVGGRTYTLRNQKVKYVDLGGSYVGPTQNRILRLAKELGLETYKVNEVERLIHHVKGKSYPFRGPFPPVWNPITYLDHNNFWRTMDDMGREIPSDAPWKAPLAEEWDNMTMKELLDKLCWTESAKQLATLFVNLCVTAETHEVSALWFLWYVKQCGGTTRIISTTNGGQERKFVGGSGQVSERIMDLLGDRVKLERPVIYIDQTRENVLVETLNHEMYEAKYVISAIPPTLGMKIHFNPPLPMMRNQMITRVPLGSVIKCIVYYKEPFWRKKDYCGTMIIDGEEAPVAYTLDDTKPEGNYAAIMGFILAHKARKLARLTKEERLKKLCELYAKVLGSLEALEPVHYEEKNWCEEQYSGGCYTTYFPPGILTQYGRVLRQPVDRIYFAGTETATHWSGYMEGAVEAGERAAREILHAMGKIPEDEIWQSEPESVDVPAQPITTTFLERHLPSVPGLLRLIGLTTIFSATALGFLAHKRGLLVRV

Row | SMILES | IC50 [1] [µM] | IC50 [2] [µM] | IC50 [3] [µM] | IC50 [4] [µM] | IC50 [5] [µM]
1 | Cc1ccc(-c2cc(/C=C/C(=O)Nc3cccc(OCC4CCNCC4)c3)ccc2O)cc1 | > 50 | – | – | – | –
2 | COc1cc(/C=C/C(=O)Nc2cccc(OCC3CCNCC3)c2)cc(OC)c1OC | > 50 | – | – | – | –
3 | COc1cc(/C=C/C(=O)Nc2ccc(CC(=O)NN)cc2)ccc1O | – | 30.3 | 49.3 | – | –
4 | COc1cc(/C=C/C(=O)Nc2cccc(OCC3CCNCC3)c2)ccc1O | – | 24.5 | 31 | – | –
5 | COc1ccc(/C=C/C(=O)Nc2cccc(OCC3CCNCC3)c2)cc1OC | > 50 | – | – | – | –
6 | N#Cc1ccc(/C=C/C(=O)Nc2cccc(OCC3CCNCC3)c2)cc1 | > 50 | – | – | – | –
7 | COc1cc(/C=C/C(=O)Nc2ccc(N)cc2)ccc1O | – | > 50 | > 50 | – | –
8 | O=C(/C=C/c1ccc(O)cc1)Nc1cccc(OCC2CCNCC2)c1 | – | 9.33 | > 50 | > 50 | > 50
9 | COc1cc(/C=C/C(=O)CC(=O)/C=C/c2ccc(O)c(OC)c2)ccc1O [CURCUMIN] | 9.6 | – | – | – | –
10 | COc1cc(/C=C/C(=O)Nc2ccc(NC(=N)N)cc2)ccc1O | – | > 50 | > 50 | – | –
11 | COc1cc(/C=C/C(=O)Nc2ccc(C(=O)NO)cc2)ccc1O | – | 32.5 | > 50 | – | –
12 | COc1cc(/C=C/C(=O)Nc2cccc(COc3ccc(OC4CCNCC4)cc3)c2)ccc1O | – | 28.5 | > 50 | – | –
13 | O=C(/C=C/c1ccc(F)cc1)Nc1cccc(OCC2CCNCC2)c1 | > 50 | – | – | – | –
14 | COc1cc(/C=C/C(=O)Nc2ccccc2COc2ccc(OC3CCNCC3)cc2)ccc1O | – | 4.42 | 14.2 | > 50 | > 50
15 | O=C(/C=C/c1cccc(C(F)(F)F)c1)Nc1cccc(OCC2CCNCC2)c1 | > 50 | – | – | – | –
16 | COC(=O)Cc1ccc(NC(=O)/C=C/c2ccc(OC(C)=O)c(OC)c2)cc1 | > 50 | – | – | – | –
